# Data published in PubChem BioAssay (NCI).
#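 Grown in 96-well plates, cells were treated for 48 hours with each compound at five concentrations. Insufficient inhibition: endpoint recorded as highest concentration tested. TGI is the concentration that stops growth completely.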
# Tests used:
# Assay in all cases: growth of human tumour cells (NCI), 48 h
# 786-0 renal = test system: 786-0 renal
# ACHN renal = test system: ACHN renal
# EKVX NSCLC = test system: EKVX NSCLC
# HCC-2998 colon = test system: HCC-2998 colon
# HOP-62 NSCLC = test system: HOP-62 NSCLC
# HOP-92 NSCLC = test system: HOP-92 NSCLC
# HS 578T breast = test system: HS 578T breast
# KM12 colon = test system: KM12 colon
# MCF7 breast = test system: MCF7 breast
# MDA-MB-231 breast = test system: MDA-MB-231 breast
# NCI-H522 lung = test system: NCI-H522 lung
# OVCAR-3 ovarian = test system: OVCAR-3 ovarian
# OVCAR-8 ovarian = test system: OVCAR-8 ovarian
# SF-295 CNS = test system: SF-295 CNS
# SF-539 CNS = test system: SF-539 CNS
# SK-MEL-2 melanoma = test system: SK-MEL-2 melanoma
# SK-OV-3 ovarian = test system: SK-OV-3 ovarian
# SN12C renal = test system: SN12C renal
# UACC-257 melanoma = test system: UACC-257 melanoma
# SW-620 colon = test system: SW-620 colon
SMILES,TGI (786-0 renal) [µM],TGI (ACHN renal) [µM],TGI (EKVX NSCLC) [µM],TGI (HCC-2998 colon) [µM],TGI (HOP-62 NSCLC) [µM],TGI (HOP-92 NSCLC) [µM],TGI (HS 578T breast) [µM],TGI (KM12 colon) [µM],TGI (MCF7 breast) [µM],TGI (MDA-MB-231 breast) [µM],TGI (NCI-H522 lung) [µM],TGI (OVCAR-3 ovarian) [µM],TGI (OVCAR-8 ovarian) [µM],TGI (SF-295 CNS) [µM],TGI (SF-539 CNS) [µM],TGI (SK-MEL-2 melanoma) [µM],TGI (SK-OV-3 ovarian) [µM],TGI (SN12C renal) [µM],TGI (UACC-257 melanoma) [µM],TGI (SW-620 colon) [µM]
COC(=O)CCc1ccc2c(c1)CC1(Cc3ccccc3C1)C2,> 100,> 100,> 100,> 100,> 100,> 100,> 100,> 100,> 100,> 100,> 100,> 100,> 100,> 100,> 100,> 100,> 100,> 100,> 100,–
O=[N+]([O-])c1ccc(N/N=C(\c2ccccc2)c2ccccn2)nc1,23.4,18.7,17.3,> 59.6,31.2,43.8,26,> 45.8,8.45,61.7,12.7,23.3,23.8,25.7,15.3,> 94.9,24,> 68.9,29.8,> 77.1
COc1cc([C@@H]2c3cc4c(cc3[C@@H](OC3OC5COC(C)OC5C(OC(=O)CN5CCN(C)CC5)C3OC(=O)CN3CCN(C)CC3)C3COC(=O)[C@@H]32)OCO4)cc(OC)c1OC(=O)CN1CCN(C)CC1 (some centres undefined),52.8,> 100,> 100,> 100,> 100,> 100,> 100,> 100,> 100,> 100,> 100,> 100,> 100,> 100,73.4,> 100,> 100,> 100,> 100,> 100
C/C=N\n1c(C)c(C#N)c(C#N)c1N,> 100,> 100,> 100,> 100,> 100,> 100,> 100,> 100,> 100,> 100,> 100,> 100,> 100,> 100,> 100,> 100,> 100,> 100,> 100,> 100
CCOC(=O)c1c[nH]cc1-c1cn(S(=O)(=O)c2ccccc2)cc1C,> 100,64.3,71.3,41,> 100,> 100,46.2,49,61,> 100,46.4,61.8,> 100,> 100,53.5,> 100,> 100,59.6,37.6,> 10
